Measurements published in patent US20230219906A1, “MACROCYCLIC-2-AMINO-3-FLUORO-BUT-3-ENAMIDES AS INHIBITORS OF MCL-1” (Janssen Pharmaceutica NV, priority 2020, published 2023).
Like-named read-outs stand apart in the source and are kept apart here.

What was measured:
[1] = molecular target: Myeloid Cell Leukemia 1(Mcl-1) (Homo sapiens, UniProt Q07820); assay: Terbium labeled Mcl-1 HTRF binding assay with Cy5-labeled BIM BH3 peptide; details: displacement of Cy5 Bim BH3 peptide; Ki=IC50/(1+[L]/Kd), [L]=8 nM, Kd=10 nM; 60 minutes at room temperature; read-out: Tb-MCL1 Ki
Sequence of Myeloid Cell Leukemia 1(Mcl-1) (Q07820 whole entry): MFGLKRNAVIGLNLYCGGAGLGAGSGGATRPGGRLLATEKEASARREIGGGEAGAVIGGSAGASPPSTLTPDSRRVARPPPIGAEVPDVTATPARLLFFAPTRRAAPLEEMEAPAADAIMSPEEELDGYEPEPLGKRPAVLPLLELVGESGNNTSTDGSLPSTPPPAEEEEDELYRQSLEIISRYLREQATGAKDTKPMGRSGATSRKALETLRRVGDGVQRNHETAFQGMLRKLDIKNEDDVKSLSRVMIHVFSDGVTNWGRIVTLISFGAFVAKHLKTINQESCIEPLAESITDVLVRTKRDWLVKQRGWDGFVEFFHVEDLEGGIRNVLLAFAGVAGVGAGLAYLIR
Protocol: Terbium labeled Myeloid Cell Leukemia 1(Mcl-1) homogeneous time-resolved fluorescence (HTRF) binding assay utilizing the BIM BH3 peptide (H2N—(C/Cy5Mal) WIAQELRRIGDEFN-OH) as the binding partner for Mcl-1.
This assay evaluated inhibition of the BH3 domain: Mcl-1 interaction by measuring the displacement of Cy5-labeled BIM BH3 peptide (H2N—(C/Cy5Mal) WIAQELRRIGDEFN-OH) in the HTRF assay format.
The following assay and stock buffers were prepared for use in the assay: (a) Stock buffer: 10 mM Tris-HCl, pH=7.5+150 mM NaCl, filtered, sterilized, and stored at 4° C.; and (b) 1X assay buffer, where the following ingredients were added fresh to stock buffer: 2 mM dithiothreitol (DTT), 0.0025% Tween-20, 0.1 mg/mL bovine serum albumin (BSA). The 1X Tb-Mcl-1+Cy5 Bim peptide solution was prepared by diluting the protein stock solution using the 1X assay buffer (b) to 25 pM Tb-Mcl-1 and 8 nM Cy5 Bim peptide.
Using the Acoustic ECHO, 100 nL of 100x test compound(s) were dispensed into individual wells of a white 384-well Perkin Elmer Proxiplate, for a final compound concentration of 1× and final DMSO concentration of 1%. Inhibitor control and neutral control (NC, 100 nL of 100% DMSO) were stamped into columns 23 and 24 of assay plate, respectively. Into each well of the plate was then dispensed 10 μL of the 1X Tb-Mcl-1+Cy5 Bim peptide solution. The plate was centrifuged with a cover plate at 1000 rpm for 1 minute, then incubated for 60 minutes at room temperature with plates covered.
The TR-FRET signal was read on an BMG PHERAStar FSX MicroPlate Reader at room temperature using the HTRF optic module (HTRF: excitation: 337 nm, light source: laser, emission A: 665 nm, emission B: 620 nm, integration start: 60 μs, integration time: […]).
The BMG PHERAStar FSX MicroPlate Reader was used to measure fluorescence intensity at two emission wavelengths—665 nm and 620 nm—and report relative fluorescence units (RFU) for both emissions, as well as a ratio of the emissions (665 nm/620 nm)*10,000. The RFU values were normalized to percent inhibition as follows:
% inhibition=(((NC−IC)−(compound−IC))/(NC−IC))*100
where IC (inhibitor control, low signal)= mean signal of 1X Tb-MCl-1+Cy5 Bim peptide+inhibitor control or 100% inhibition of Mcl-1; NC (neutral control, high signal)= mean signal 1X Tb-MCl-1+Cy5 Bim peptide with DMSO only or 0% inhibition An 11-point dose response curve was generated to determine IC50 values (using GenData) based on the following equation:
Y=Bottom+(Top−Bottom)/(1+10∧((log IC50−X)*HillSlope))
where Y=% inhibition in the presence of X inhibitor concentration; Top=100% inhibition derived from the IC (mean signal of Mcl-1+inhibitor control); Bottom=0% inhibition derived from the NC (mean signal of Mcl-1+DMSO); Hillslope=Hill coefficient; and IC50=concentration of compound with 50% inhibition in relation to top/neutral control (NC).
In this assay [L]=8 nM and Kd=10 nM

[2] = system: MOLP-8 human multiple myeloma cell line; assay: Caspase-Glo 3/7 apoptosis induction assay in MOLP-8 cells; format: cell-based; details: caspase-3/7 activity, 2 hours at 37° C., averaged over all runs on all batches, read-out: MOLP8 AC50
Source text: MCL-1 is a regulator of apoptosis and is highly over-expressed in tumor cells that escape cell death. The assay evaluates the cellular potency of small-molecule compounds targeting regulators of the apoptosis pathway, primarily MCL-1, Bfl-1, Bcl-2, and other proteins of the Bcl-2 family. Protein-protein inhibitors disrupting the interaction of anti-apoptotic regulators with BH3-domain proteins initiate apoptosis.
The Caspase-Glo® 3/7 Assay is a luminescent assay that measures caspase-3 and −7 activities in purified enzyme preparations or cultures of adherent or suspension cells. The assay provides a proluminescent caspase-3/7 substrate, which contains the tetrapeptide sequence DEVD. This substrate is cleaved to release aminoluciferin, a substrate of luciferase used in the production of light. Addition of the single Caspase-Glo® 3/7 Reagent in an “add-mix-measure” format results in cell lysis, followed by caspase cleavage of the substrate and generation of a “glow-type” luminescent signal.
This assay uses the MOLP-8 human multiple myeloma cell line, which is sensitive to MCL-1 inhibition.
Cell cultures were maintained between 0.2 and 2.0×10^6 cells/mL. The cells were harvested by collection in 50 mL conical tubes. The cells were then pelleted at 500 g for 5 mins before removing supernatant and resuspension in fresh pre-warmed culture medium. The cells were counted and diluted as needed.
The assay reagent was prepared by transferring the buffer solution to the substrate vial and mixing. The solution may be stored for up to 1 week at 4° C. with negligible loss of signal.
Compounds were delivered in assay-ready plates (Proxiplate) and stored at −20° C. Assays always include 1 reference compound plate containing reference compounds. The plates were spotted with 40 nL of compounds (0.5% DMSO final in cells; serial dilution; […] highest conc. 1/3 dilution, 10 doses, duplicates). The compounds were used at room temperature and 4 μL of pre-warmed media was added to all wells except column 2 and 23. The negative control was prepared by adding 1% DMSO in media. The positive control was prepared by adding the appropriate positive control compound in final concentration of […] in media. The plate was prepared by adding 4 μL negative control to column 23, 4 μL positive control to column 2 and 4 μL cell suspension to all wells in the plate. The plate with cells was then incubated at 37° C. for 2 hours. The assay signal reagent is the Caspase-Glo solution described above, and 8 μL was added to all wells. The plates were then sealed and measured after 30 minutes.
The activity of a test compound was calculated as percent change in apoptosis induction as follows:
% Effect (AC50)=100−(sample-LC)/(HC-LC)*100
% Control=(sample/HC)*100
% Control min=(sample-LC)/(HC-LC)*100

Row | SMILES | Ki [1] [nM] | AC50 ([2]; Homo sapiens, MOLP-8, 2 h) [nM] | AC50 [2] [nM]
1 | C[C@@H]1[C@@H](C)C/C=C(\F)[C@H](C(=O)N(C)C2CCOC2)N2CCC[C@H]2CN2C[C@@]3(CCCc4cc(Cl)ccc43)COc3ccc(cc32)C(=O)NS1(=O)=O (single isomer, unassigned) [Compound 69] | 0.049 | 118 | –
2 | C[C@@H]1[C@@H](C)C/C=C(\F)[C@H](C(=O)N(C)CC2CCCCO2)N2CCC[C@H]2CN2C[C@@]3(CCCc4cc(Cl)ccc43)COc3ccc(cc32)C(=O)NS1(=O)=O (single isomer, unassigned) [Compound 71] | 0.066 | 94.2 | –
3 | C[C@@H]1[C@@H](C)C/C=C(\F)[C@H](C(=O)N(C)CC2CCCCO2)N2CCC[C@H]2CN2C[C@@]3(CCCc4cc(Cl)ccc43)COc3ccc(cc32)C(=O)NS1(=O)=O (single isomer, unassigned) [Compound 72] | 0.061 | – | 75.2
4 | C[C@@H]1[C@@H](C)C/C=C(\F)[C@H](C(=O)N(C)CCN2CCOCC2)N2CCC[C@H]2CN2C[C@@]3(CCCc4cc(Cl)ccc43)COc3ccc(cc32)C(=O)NS1(=O)=O [Compound 1] | 0.027 | 80.1 | –
5 | C[C@@H]1[C@@H](C)C/C=C(\F)[C@H](C(=O)N(C)C)N2CCC[C@H]2CN2C[C@@]3(CCCc4cc(Cl)ccc43)COc3ccc(cc32)C(=O)NS1(=O)=O [Compound 3] | 0.129 | 99.2 | –
6 | C[C@@H]1CN(C(=O)[C@H]2/C(F)=C/C[C@H](C)[C@@H](C)S(=O)(=O)NC(=O)c3ccc4c(c3)N(C[C@@H]3CCCN32)C[C@@]2(CCCc3cc(Cl)ccc32)CO4)CCO1 [Compound 4] | 0.084 | 71.3 | –
7 | C[C@@H]1[C@@H](C)C/C=C(\F)[C@H](C(=O)N(C)CCCN2CCOCC2)N2CCC[C@H]2CN2C[C@@]3(CCCc4cc(Cl)ccc43)COc3ccc(cc32)C(=O)NS1(=O)=O [Compound 5] | 0.026 | 111 | –
8 | C[C@@H]1[C@@H](C)C/C=C(\F)[C@H](C(=O)N2CCOCC2)N2CC[C@H]2CN2C[C@@]3(CCCc4cc(Cl)ccc43)COc3ccc(cc32)C(=O)NS1(=O)=O [Compound 7] | 0.223 | 346 | –
9 | C[C@@H]1[C@@H](C)C/C=C(\F)[C@H](C(=O)N2CCOCC2)N2CCC[C@H]2CN2C[C@@]3(CCCc4cc(Cl)ccc43)COc3ccc(cc32)C(=O)NS1(=O)=O [Compound 8] | 0.074 | 141 | –
10 | C[C@@H]1[C@@H](C)C/C=C(\F)[C@H](C(=O)N2C[C@H]3C[C@@H]2CO3)N2CCC[C@H]2CN2C[C@@]3(CCCc4cc(Cl)ccc43)COc3ccc(cc32)C(=O)NS1(=O)=O [Compound 9] | 0.13 | 180 | –
11 | C[C@@H]1[C@@H](C)C/C=C(\F)[C@@H](C(=O)N2C[C@H]3C[C@@H]2CO3)N2CCC[C@H]2CN2C[C@@]3(CCCc4cc(Cl)ccc43)COc3ccc(cc32)C(=O)NS1(=O)=O [Compound 10] | 0.227 | 285 | –
12 | C[C@@H]1[C@@H](C)C/C=C(\F)[C@H](C(=O)N2CCOC[C@@H]2C)N2CCC[C@H]2CN2C[C@@]3(CCCc4cc(Cl)ccc43)COc3ccc(cc32)C(=O)NS1(=O)=O [Compound 12] | 0.069 | 196 | –
13 | C[C@@H]1[C@@H](C)C/C=C(\F)[C@H](C(=O)N2CCN(C)CC2)N2CCC[C@H]2CN2C[C@@]3(CCCc4cc(Cl)ccc43)COc3ccc(cc32)C(=O)NS1(=O)=O [Compound 13] | 0.059 | 297 | –
14 | C[C@@H]1[C@@H](C)C/C=C(\F)[C@H](C(=O)N2CC3(CSC3)C2)N2CCC[C@H]2CN2C[C@@]3(CCCc4cc(Cl)ccc43)COc3ccc(cc32)C(=O)NS1(=O)=O [Compound 15] | 0.162 | 435 | –
15 | COCCN(CCOC)C(=O)[C@H]1/C(F)=C/C[C@H](C)[C@@H](C)S(=O)(=O)NC(=O)c2ccc3c(c2F)N(C[C@@H]2CCCN21)C[C@@]1(CCCc2cc(Cl)ccc21)CO3 [Compound 17] | 0.032 | 234 | –
16 | COCCN(CCOC)C(=O)[C@H]1/C(F)=C/C[C@H](C)[C@@H](C)S(=O)(=O)NC(=O)c2cc3c(cc2F)OC[C@]2(CCCc4cc(Cl)ccc42)CN3C[C@@H]2CCCN21 [Compound 18] | 0.05 | 213 | –
17 | COCCOCCN(C)C(=O)[C@H]1/C(F)=C/C[C@H](C)[C@@H](C)S(=O)(=O)NC(=O)c2ccc3c(c2)N(C[C@@H]2CCCN21)C[C@@]1(CCCc2cc(Cl)ccc21)CO3 [Compound 19] | 0.045 | 79.3 | –
18 | COCCN(C)C(=O)[C@H]1/C(F)=C/C[C@H](C)[C@@H](C)S(=O)(=O)NC(=O)c2ccc3c(c2)N(C[C@@H]2CCCN21)C[C@@]1(CCCc2cc(Cl)ccc21)CO3 [Compound 21] | 0.075 | 78 | –
19 | C[C@@H]1[C@@H](C)C/C=C(\F)[C@H](C(=O)N(C)CC2CCOCC2)N2CCC[C@H]2CN2C[C@@]3(CCCc4cc(Cl)ccc43)COc3ccc(cc32)C(=O)NS1(=O)=O [Compound 22] | 0.047 | 56.7 | –
20 | C[C@@H]1CN(C(=O)[C@H]2/C(F)=C/C[C@H](C)[C@@H](C)S(=O)(=O)NC(=O)c3ccc4c(c3)N(C[C@@H]3CCCN32)C[C@@]2(CCCc3cc(Cl)ccc32)CO4)CCN1C [Compound 23] | 0.054 | 101 | –
21 | C[C@@H]1[C@@H](C)C/C=C(\F)[C@H](C(=O)N2CCN(C)[C@@H](C)C2)N2CCC[C@H]2CN2C[C@@]3(CCCc4cc(Cl)ccc43)COc3ccc(cc32)C(=O)NS1(=O)=O [Compound 24] | 0.068 | 151 | –
22 | COC1CN(C(=O)[C@H]2/C(F)=C/C[C@H](C)[C@@H](C)S(=O)(=O)NC(=O)c3ccc4c(c3)N(C[C@@H]3CCCN32)C[C@@]2(CCCc3cc(Cl)ccc32)CO4)C1 [Compound 25] | 0.072 | 154 | –
